The values that follow come from patent EP3670512A1, “DIAZABICYCLOOCTANONES AS INHIBITORS OF SERINE BETA-LACTAMASES” (Antabio SAS, priority 2018, dated 2020).

The subject of experiment [1] is NTBC091.1 (E. coli strain expressing KPC-2, TEM-1). The experiment in a line: Meropenem potentiation, broth micro-dilution MIC, strain NTBC091.1. Conditions: for MIC mero + 4 µg/mL inhibitor: NTBC091.1, MIC of meropenem with 4 µg/mL of the labelled compound; for MIC of combination with meropenem compared with the combination of meropenem and avibactam: strain NTBC091.1. In kind it is cell-based.

A further experiment deals with AmpC. The experiment in a line: In vitro enzyme inhibition assay (nitrocefin hydrolysis), AmpC. In kind it is biochemical. Conditions: nitrocefin 100µM, 10mM HEPES pH 7.5; banded; read-out: Amp-C mean IC50. The protocol:
(§1) Compound dilution was performed in DMSO.

Experiment [2] has as its system NTBC093 (E. cloacae strain expressing KPC-2, TEM-1). The experiment in a line: Meropenem potentiation, broth micro-dilution MIC, strain NTBC093. In kind it is cell-based. To be noted: for MIC mero + 4 µg/mL inhibitor: NTBC093, MIC of meropenem with 4 µg/mL of the labelled compound, banded.
The test system of experiment [3] is NTBC096.1 (K. pneumoniae strain expressing OXA-181 and SHV-11). The experiment in a line: Meropenem potentiation, broth micro-dilution MIC, strain NTBC096.1. It is filed as cell-based. In general terms: In broth dilution the organism is exposed to a series of concentrations in liquid medium.
Experiment [4] relates to panel of 48 A. baumannii strains that are resistant to betalactam antibiotics (produces OXA variants of SBL enzymes). The experiment in a line: Cumulative MIC against panel of 48 resistant strains (Figure 2). Conditions: in the presence of 16 µg/mL of each inhibitor, Example 10 in combination with meropenem. It is filed as cell-based. The source says: The data is presented in Figure 2 in the standard cumulative MIC fashion.

Experiment [5] relates to clinical strains of Enterobacteriaceae that are resistant to betalactam antibiotics (produce OXA variants of SBL enzymes). The experiment in a line: Cumulative MIC against large panel of resistant clinical strains (Figure 1). To be noted: at an MIC of 1 µg/mL, Example 10 in combination with meropenem. It is filed as cell-based. The source says: The data is presented in Figure 1 in the standard cumulative MIC fashion.

The subject of experiment [6] is NTBC189 (K. pneumoniae strain expressing TEM-OSBL(b), CTX-M-14, OXA-48(c)). The experiment in a line: Meropenem potentiation, broth micro-dilution MIC, strain NTBC189. It is filed as cell-based.
Experiment [7] relates to NTBC099 (K. pneumoniae strain expressing KPC-3, SHV-11 and TEM-1). The experiment in a line: microbe, parasite or virus in culture. It is filed as cell-based. To be noted: Klebsiella pneumoniae, read-out: MIC mero, µg/mL, no inhibitor.
The next experiment has as its target CTX-M15 (Escherichia coli, UniProt Q9EXV5). The experiment in a line: In vitro enzyme inhibition assay (nitrocefin hydrolysis), CTX-M15. In kind it is biochemical. Conditions: nitrocefin 50µM, 10mM HEPES pH 7.5; numeric value. Here is the method: as §1
Where [8] appears, read: Klebsiella pneumoniae, read-out: MIC mero, µg/mL, no inhibitor.

≈ marks a conversion by molar mass, not a printed value.

Sequence of CTX-M15 (Q9EXV5 29-291, species assumed): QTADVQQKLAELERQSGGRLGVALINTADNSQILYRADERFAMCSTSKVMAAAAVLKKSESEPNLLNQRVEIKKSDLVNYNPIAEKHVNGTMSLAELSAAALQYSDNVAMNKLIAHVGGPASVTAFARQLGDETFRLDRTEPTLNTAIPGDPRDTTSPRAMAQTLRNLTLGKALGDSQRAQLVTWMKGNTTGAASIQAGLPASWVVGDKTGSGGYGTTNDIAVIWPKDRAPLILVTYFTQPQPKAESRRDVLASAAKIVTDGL

As for `O=C1N2C[C@@H](CC[C@@H]2F)N1OS(=O)(=O)[O-].[Na+]` [Example 11, Sodium (2S, 5R)-2-fluoro-7-oxo-1,6-diazabicyclo [3.2.1] octan-6-yl sulfate], the entries for the “MIC mero + 4 µg/mL inhibitor” value in [1] (banded) and in experiment [2] were “(A) (MIC < 1 µg/mL (A))” and “(B) (MIC = 1 or 2 µg/mL (B))”, respectively. Also, the IC50 – broadly, the concentration that inhibits the measured activity by half – at AmpC was more than 60 nM.
With `O=C1N2C[C@@H](CC[C@H]2C(F)F)N1OS(=O)(=O)[O-].[Na+]` [Example 2, Sodium (2S, 5R)-7-oxo-2-(difluoromethyl)-1,6-diazabicyclo[3.2.1]octan-6-yl sulfate], the “MIC mero + 4 µg/mL inhibitor” value was “(A) (MIC < 1 µg/mL (A))” in [1] (banded) and 0.03 µg/mL in experiment [1] (numeric). Besides, the “MIC of combination with meropenem compared with the combination of meropenem and avibactam” value in experiment [1] is on record as “lower”. Also, the IC50 at AmpC fell in the range of 10 to 40 nM.
Turning to `C[C@@H](O)[C@H]1C(=O)N2C(C(=O)O)=C(S[C@@H]3CN[C@H](C(=O)N(C)C)C3)[C@H](C)[C@H]12` [meropenem, reference compound], the MIC came to 4 µg/mL in experiment [1] (Escherichia coli, read-out: MIC mero, µg/mL, no inhibitor); 32 µg/mL in experiment [3] (setting [8]); 32 µg/mL in [6] (setting [8]); 256 µg/mL (≈ 668 µM) in experiment [7]; 8 µg/mL in experiment [2] (Enterobacter cloacae, read-out: MIC mero, µg/mL, no inhibitor). Further, the “fraction of strains susceptible” value in experiment [4] is listed as “less than 10%”; in experiment [5], 0%.
Regarding `CC(F)(F)[C@@H]1CC[C@@H]2CN1C(=O)N2OS(=O)(=O)[O-].[Na+]` [Example 5, Sodium (2S, 5R)-2-(1,1-difluoroethyl)-7-oxo-1,6-diazabicyclo[3.2.1]octan-6-yl sulphate], the “MIC mero + 4 µg/mL inhibitor” value in experiment [1] (banded) and in experiment [2] was “(A) (MIC < 1 µg/mL (A))” each time. Besides, the IC50 on AmpC was 40 to 60 nM.
With `O=C1N2C[C@@H](CC[C@H]2C(F)(F)F)N1OS(=O)(=O)[O-].[Na+]` [Example 1, Sodium (2S, 5R)-7-oxo-2-(trifluoromethyl)-1,6-diazabicyclo[3.2.1]octan-6-yl sulfate], the “MIC mero + 4 µg/mL inhibitor” value in [1] (banded) is listed as “(A) (MIC < 1 µg/mL (A))”; in experiment [1] (numeric) it was 0.03 µg/mL. Also, the “MIC of combination with meropenem compared with the combination of meropenem and avibactam” value in experiment [1] is reported as “lower”. For the same molecule, the IC50 at AmpC was less than 10 nM.
In the case of `O=C1N2C[C@@H](CC[C@H]2C(F)(F)c2nccs2)N1OS(=O)(=O)[O-].[Na+]` [Example 9, Sodium (2S, 5R)-2-[difluoro(1,3-thiazol-2-yl)methyl]-7-oxo-1,6-diazabicyclo[3.2.1]octan-6-yl sulphate], the “MIC mero + 4 µg/mL inhibitor” value in experiment [1] (banded) and in [2] was “(A) (MIC < 1 µg/mL (A))” in each case. Further, the IC50 on AmpC was less than 10 nM.
For `O=C1N2C[C@@H](CC[C@H]2Cl)N1OS(=O)(=O)[O-].[Na+]` [Example 12, Sodium (2R,5R)-2-chloro-7-oxo-1,6-diazabicyclo[3.2.1]octan-6-yl sulfate], the “MIC mero + 4 µg/mL inhibitor” value in experiment [1] (banded) and in experiment [2] was “(A) (MIC < 1 µg/mL (A))” throughout. Besides, the “MIC of combination with meropenem compared with the combination of meropenem and avibactam” value in experiment [1] is “lower”. For the same molecule, the IC50 at AmpC was less than 10 nM.
Take `O=C1N2C[C@@H](CC[C@H]2CF)N1OS(=O)(=O)[O-].[Na+]` [Example 4, Sodium (2S, 5R)-2-(fluoromethyl)-7-oxo-1,6-diazabicyclo[3.2.1]octan-6-yl sulphate]: the “MIC mero + 4 µg/mL inhibitor” value in experiment [1] (banded) and in [2] was “(A) (MIC < 1 µg/mL (A))” throughout. For the same molecule, the IC50 at AmpC was less than 10 nM.
`O=C1N2C[C@@H](CC[C@H]2SC(F)(F)F)N1OS(=O)(=O)[O-].[Na+]` [Example 7, Sodium (2R, 5R)-7-oxo-2-[(trifluoromethyl)sulfanyl]-1,6-diazabicyclo[3.2.1]octan-6-yl sulphate]: the “MIC mero + 4 µg/mL inhibitor” value in experiment [1] (banded) is “(A) (MIC < 1 µg/mL (A))”; in [2], “(B) (MIC = 1 or 2 µg/mL (B))”. For the same molecule, the IC50 at AmpC is 40 to 60 nM.
As for `NC(=O)[C@@H]1CC[C@@H]2CN1C(=O)N2OS(=O)(=O)O` [Avibactam, avibactam], the “MIC mero + 4 µg/mL inhibitor” value in [1] (numeric) is recorded as 0.06 (A) µg/mL; in experiment [3] (NTBC096.1, MIC of meropenem with 4 µg/mL of the labelled compound, numeric), 1(B) µg/mL. For the same molecule, inhibition on CTX-M15 was half-maximal at 1.4 nM (IC50).
For `O=C1N2C[C@@H](CC[C@H]2CCl)N1OS(=O)(=O)[O-].[Na+]` [Example 6, Sodium (2S, 5R)-2-(chloromethyl)-7-oxo-1,6-diazabicyclo[3.2.1]octan-6-yl sulphate], the “MIC mero + 4 µg/mL inhibitor” value in [1] (banded) and in experiment [2] was “(A) (MIC < 1 µg/mL (A))” throughout. Also, the IC50 on AmpC lay in the range of 10 to 40 nM.
As for `O=C1N2C[C@@H](CC[C@H]2F)N1OS(=O)(=O)[O-].[Na+]` [Example 10, Sodium (2R,5R)-2-fluoro-7-oxo-1,6-diazabicyclo[3.2.1]octan-6-yl sulfate], the “MIC mero + 4 µg/mL inhibitor” value in [1] (banded) and in experiment [2] was “(A) (MIC < 1 µg/mL (A))” throughout. The “MIC of combination with meropenem compared with the combination of meropenem and avibactam” value is on record as “lower” in experiment [1], “lower” in [3] (strain NTBC096.1), “lower” in experiment [6] (strain NTBC189) and “similar” in experiment [2] (strain NTBC093). Besides, on AmpC, the IC50 was in the range of 10 to 40 nM. In addition, the “fraction of strains susceptible” value in [5] is “over 90%”.
Turning to `O=C1N2C[C@@H](CC[C@H]2COC(F)(F)F)N1OS(=O)(=O)[O-].[Na+]` [Example 8, Sodium (2S, 5R)-7-oxo-2-[(trifluoromethoxy)methyl]-1,6-diazabicyclo[3.2.1]octan-6-yl sulphate], the “MIC mero + 4 µg/mL inhibitor” value in experiment [1] (banded) and in experiment [2] was “(A) (MIC < 1 µg/mL (A))” throughout. Further, the IC50 at AmpC is 40 to 60 nM.
As to `O=C1N2C[C@@H](CC[C@H]2C(Cl)Cl)N1OS(=O)(=O)[O-].[Na+]` [Example 3, Sodium (2S,5R)-2-(dichloromethyl)-7-oxo-1,6-diazabicyclo[3.2.1]octan-6-yl sulfate], the “MIC mero + 4 µg/mL inhibitor” value in experiment [1] (banded) and in experiment [2] was “(A) (MIC < 1 µg/mL (A))” throughout. Moreover, on AmpC, the IC50 was in the range of 40 to 60 nM.
